Measurements published in ChEMBL document CHEMBL3045629, “Synthesis and Herbicidal Activity of Hydantocidin Analogues: Modification of the Carbonyl Groups in Spirohydantoin” (1995).

Experiments:
Assay type in all cases: functional
[1] = tested on: Abutilon theophrasti; experiment: Herbicidal activity against three-leaf stage Abutilon theophrasti (velvetleaf) exposed to foliar compound spraying at 1000 ppm measured 10 days after compound treatment
[2] = tested on: Ambrosia artemisiifolia; experiment: Herbicidal activity against three-leaf stage Ambrosia artemisiifolia (ragweed) exposed to foliar compound spraying at 1000 ppm measured 10 days after compound treatment
[3] = tested on: Xanthium strumarium; experiment: Herbicidal activity against three-leaf stage Xanthium strumarium (cocklebur) exposed to foliar compound spraying at 1000 ppm measured 10 days after compound treatment
[4] = tested on: Ipomoea purpurea; experiment: Herbicidal activity against three-leaf stage Ipomoea purpurea (common morning-glory) exposed to foliar compound spraying at 1000 ppm measured 10 days after compound treatment
[5] = tested on: Solanum nigrum; experiment: Herbicidal activity against three-leaf stage Solanum nigrum (black nightshade) exposed to foliar compound spraying at 1000 ppm measured 10 days after compound treatment
[6] = tested on: Sorghum halepense; experiment: Herbicidal activity against three-leaf stage Sorghum halepense (Johnson grass) exposed to foliar compound spraying at 1000 ppm measured 10 days after compound treatment
[7] = tested on: Panicum dichotomiflorum; experiment: Herbicidal activity against three-leaf stage Panicum dichotomiflorum exposed to foliar compound spraying at 1000 ppm measured 10 days after compound treatment
[8] = tested on: Digitaria sanguinalis; experiment: Herbicidal activity against three-leaf stage Digitaria sanguinalis (hairy crabgrass) exposed to foliar compound spraying at 1000 ppm measured 10 days after compound treatment
[9] = tested on: Echinochloa crus-galli; experiment: Herbicidal activity against three-leaf stage Echinochloa crus-galli (barnyard grass) exposed to foliar compound spraying at 1000 ppm measured 10 days after compound treatment
[10] = tested on: Setaria viridis; experiment: Herbicidal activity against three-leaf stage Setaria viridis (green foxtail) exposed to foliar compound spraying at 1000 ppm measured 10 days after compound treatment

O=C1NC(NCc2ccccc2)=N[C@]12O[C@H](CO)[C@@H](O)[C@H]2O
Activity [1]: 0% | Activity [2]: 95% | Activity [3]: 95% | Activity [4]: 10% | Activity [5]: 30% | Activity [6]: 0% | Activity [7]: 0% | Activity [8]: 0% | Activity [9]: 0% | Activity [10]: 0%

O=C1NC[C@]2(N1)O[C@H](CO)[C@@H](O)[C@H]2O
Activity [1]: 10% | Activity [2]: 10% | Activity [3]: 0% | Activity [4]: 0% | Activity [5]: 10% | Activity [6]: 10% | Activity [7]: 10% | Activity [8]: 0% | Activity [9]: 10% | Activity [10]: 10%

O=C1NC(=O)[C@]2(N1)O[C@H](CO)[C@@H](O)[C@H]2O [HYDANTOCIDIN]
Activity [1]: 95% | Activity [2]: 95% | Activity [3]: 95% | Activity [4]: 95% | Activity [5]: 95% | Activity [6]: 95% | Activity [7]: 95% | Activity [8]: 95% | Activity [9]: 95% | Activity [10]: 95%
